In PMC11130353, “Using host-mimicking conditions and a murine cutaneous abscess model to identify synergistic antibiotic combinations effective against Pseudomonas aeruginosa” (Frontiers in Cellular and Infection Microbiology, 2024):
Values after ≈ are worked out from the molar mass of the structure shown. Like-named read-outs stand apart in the source and are kept apart here.

Legend:
P. aeruginosa LESB58 [1] = test: Murine high density subcutaneous skin abscess model; assay type: in vivo, Pseudomonas aeruginosa; settings: for Area of dermoncecrosis, Mean: female Swiss Webster mice; for Area of dermoncecrosis, Mean / Area of dermoncecrosis, % reduction / CFU per abscess, Fold change / CFU per abscess, Geometric mean: day 3; for Area of dermoncecrosis, % reduction / CFU per abscess, Fold change: compared to the vehicle control
Description: Mice used in this study were female Swiss Webster aged approximately 6-7 weeks and sourced from the University of Otago Biomedical Research Facility. […] The subcutaneous abscess infection model was performed as previously described ([Pletzer et al., 2017]) with a higher inoculum. Briefly, the fur on the back of each mouse was removed by shaving and chemical depilation. Antibiotics were tested for skin toxicity by injecting 50 μL of antibiotic suspension subcutaneously into naïve mice, and subsequent inspection of the skin for inflammation on the next day. P. aeruginosa LESB58 was grown to mid-log phase in dYT broth, washed twice in sterile PBS (Gibco, pH 7.4), and resuspended in PBS to ~1 x 10^8 CFU per 50 μL inoculum. The bacterial suspension (50 μL) was injected subcutaneously into the right side of the dorsum, followed one hour later by 50 μL of antibiotic treatment injected directly into the infected area. […] Combination treatments were administered as a single 50 μL injection containing both antibiotics. The concentration of each antibiotic in the combination was the same as when it was used alone. Progression of the infection was monitored daily, and abscess dimensions were measured on day three using a calliper. On day three, abscess tissue and pus were excised, homogenized in sterile PBS using SPEX SamplePrep 1600 MiniG for five minutes and bacterial CFU counts determined by serial dilution. In this model, synergy was defined as being a significant difference between the combination treated group and the amalgamated group of single drug treated animals ([Fantin and Carbon, 1992]; [Pletzer et al., 2018]).
Statistical analysis was performed using GraphPad Prism 9.5.1. Bacterial CFU and abscess size data from in vivo experiments was analysed by Kruskal-Wallace test with Dunn’s correction for multiple comparisons. The data was considered significant when p-values were below 0.05 or 0.01 as indicated.

P. aeruginosa LESB58 [2] = test: In vitro synergy, checkerboard assay; assay type: cell-based, Pseudomonas aeruginosa; settings: MHB; for FICI, drug combined with CAZ / FICI, drug combined with CZA: FICI <= 0.5 indicates synergy
Description: (§1) For susceptibility testing under standard conditions, bacteria were cultured in Muller Hinton Broth MHB (Fort Richards Laboratories). Host mimicking conditions in vitro were simulated using tissue culture medium (TCM) consisting of Dulbecco’s modified Eagle medium (DMEM; Gibco #11965) supplemented with FBS (Moregate Biotech) (5% v/v) and glucose (1% w/v). Further susceptibility testing was also conducted in MHB supplemented with FBS (5% v/v) and DMEM supplemented with glucose (1% w/v) and MHB (10% v/v).
(§2) The P. aeruginosa LESB58.lux strain was used for in vitro synergy experiments with azithromycin in MHB and all antibiotic combinations in TCM to determine bacterial growth (as visual inspection and absorbance measurements were unreliable). Synergy was determined using the checkerboard method ([Berenbaum, 1978]; [Pletzer and Hancock, 2018]) in at least triplicate. Each antibiotic was two-fold serially diluted in sterile water before transferring to a 96-well plate containing 1 × 10^6 CFU mL^-1 bacteria in MHB or TCM. Plates were incubated at 37°C for 22-24 hours. The MIC alone or in combination was recorded as the lowest antibiotic concentration with no visible growth. For experiments using the LESB58.lux strain no visible growth was defined as an at least 95% reduction compared to the no antibiotic growth control in luminescence detected using a ClarioStar plate reader. The fractional inhibitory concentration index (FICI) was calculated as [(MICA in combination)/MICA] + [(MICB in combination)/MICB]. FICI values of 0.5 or below indicated synergy, while values above 0.5 up to and including 1 were taken to indicate additivity. FICI values above 1 indicate indifference or antagonism ([Odds, 2003]).

P. aeruginosa LESB58 [3] = test: microbe, parasite or virus in culture; assay type: cell-based, Pseudomonas aeruginosa; settings: for Fold change TCM vs MHB (MIC): MIC in TCM vs MIC in MHB; for MIC: Pseudomonas aeruginosa
Description: (§3) For susceptibility testing under standard conditions, bacteria were cultured in Muller Hinton Broth MHB (Fort Richards Laboratories). […] Further susceptibility testing was also conducted in MHB supplemented with FBS (5% v/v) and DMEM supplemented with glucose (1% w/v) and MHB (10% v/v).
The minimum inhibitory concentration (MIC) of each antibiotic was determined using the broth microdilution method in 96-well plates. […] Briefly, antibiotics were two-fold serially diluted in MHB or TCM prior to adding 1 × 10^6 CFU mL^-1 bacteria. […] The MIC was recorded as the lowest antibiotic concentration with no visible growth and the median value of at least three biological replicates reported.

[4] = for Highest tolerated dose tested: 50 μL injected subcutaneously, skin inspected next day; for Toxic (visible skin irritation, inflammation, blood vessels, swelling): female, Swiss Webster, mouse, in vivo, sc, 1 day
Description: Mice used in this study were female Swiss Webster aged approximately 6-7 weeks and sourced from the University of Otago Biomedical Research Facility. […] Briefly, the fur on the back of each mouse was removed by shaving and chemical depilation. Antibiotics were tested for skin toxicity by injecting 50 μL of antibiotic suspension subcutaneously into naïve mice, and subsequent inspection of the skin for inflammation on the next day. P. aeruginosa LESB58 was grown to mid-log phase in dYT broth, washed twice in sterile PBS (Gibco, pH 7.4), and resuspended in PBS to ~1 x 10^8 CFU per 50 μL inoculum. The bacterial suspension (50 μL) was injected subcutaneously into the right side of the dorsum, followed one hour later by 50 μL of antibiotic treatment injected directly into the infected area. […] Combination treatments were administered as a single 50 μL injection containing both antibiotics. The concentration of each antibiotic in the combination was the same as when it was used alone. Progression of the infection was monitored daily, and abscess dimensions were measured on day three using a calliper. On day three, abscess tissue and pus were excised, homogenized in sterile PBS using SPEX SamplePrep 1600 MiniG for five minutes and bacterial CFU counts determined by serial dilution.

P. aeruginosa PAO1 = test: Minimum inhibitory concentration, broth microdilution; assay type: cell-based, Pseudomonas aeruginosa; settings: for Fold change TCM vs MHB (MIC): MIC in TCM vs MIC in MHB; for MIC: Pseudomonas aeruginosa, PAO1
Description: as §3
The minimum inhibitory concentration (MIC) of each antibiotic was determined using the broth microdilution method in 96-well plates. […] Briefly, antibiotics were two-fold serially diluted in MHB or TCM prior to adding 1 × 10^6 CFU mL^-1 bacteria. Plates were incubated at 37°C for 22-24 hours. The MIC was recorded as the lowest antibiotic concentration with no visible growth and the median value of at least three biological replicates reported.

P. aeruginosa LESB58-lux = test: In vitro synergy, checkerboard assay (luminescence readout); assay type: cell-based, Pseudomonas aeruginosa; settings: LESB58-lux; for FICI, drug combined with CAZ / FICI, drug combined with CZA: FICI <= 0.5 indicates synergy
Description: as §1, §2

[5] = Colistin, tigecycline and tobramycin groups
[6] = LESB58, read-out: MIC in MHB, MHB, 20-24 h
[7] = LESB58, read-out: MIC in TCM, TCM (DMEM + 1% glucose + 5% FBS), 20-24 h
[8] = Azithromycin group, CAZ or CZA 50 mg/mL, AZM 6.25 mg/mL

CN(C)c1cc(NC(=O)CNC(C)(C)C)c(O)c2c1C[C@H]1C[C@H]3[C@H](N(C)C)C(O)=C(C(N)=O)C(=O)[C@@]3(O)C(O)=C1C2=O [TGC, tigecycline]
Area of dermoncecrosis, Mean (P. aeruginosa LESB58 [1]; Colistin, tigecycline and tobramycin groups (shared vehicle, CAZ and CZA mice), 50 μL s.c. 1 h after infection, CAZ or CZA 50, CST 1.25, TGC 2.5, TOB 2 mg/mL, vehicle 0.9% saline): 86.7 mm^2
Area of dermoncecrosis, % reduction (P. aeruginosa LESB58 [1]; [5]): 7.7%
CFU per abscess, Fold change (P. aeruginosa LESB58 [1]; [5]): -2.4
CFU per abscess, Geometric mean (P. aeruginosa LESB58 [1]; [5]): 1.0 × 10^8 CFU per abscess
Fold decrease in CAZ MIC, drug combined with CAZ (P. aeruginosa LESB58 [2]): 4
Fold decrease in CZA MIC, drug combined with CZA (P. aeruginosa LESB58 [2]): 8
Fold decrease in other MIC, drug combined with CAZ (P. aeruginosa LESB58 [2]): 8
Fold decrease in other MIC, drug combined with CZA (P. aeruginosa LESB58 [2]): 8
FICI, drug combined with CAZ (P. aeruginosa LESB58 [2]): 0.38
FICI, drug combined with CZA (P. aeruginosa LESB58 [2]): 0.25
FICI, drug combined with CAZ (P. aeruginosa LESB58 [2]; listed as tigecycline): < 0.4
FICI, drug combined with CZA (P. aeruginosa LESB58 [2]; listed as tigecycline): < 0.4
Fold change TCM vs MHB (MIC) (P. aeruginosa LESB58 [3]): >80
MIC (P. aeruginosa LESB58 [3]; [6]): 6.25 µg/mL (≈ 10.7 µM)
MIC (P. aeruginosa LESB58 [3]; [7]): > 500 µg/mL
MIC in TCM (P. aeruginosa LESB58 [3]; TCM (DMEM + 1% glucose + 5% FBS), 20-24 h): entirely lost its efficacy
Highest tolerated dose tested [4]: 12 mg/mL
Toxic (visible skin irritation, inflammation, blood vessels, swelling) [4]: 25 mg/mL
Fold change TCM vs MHB (MIC) (P. aeruginosa PAO1): >40
MIC (P. aeruginosa PAO1; read-out: MIC in MHB): 12.5 µg/mL (≈ 21.3 µM)
MIC (P. aeruginosa PAO1; read-out: MIC in TCM): > 500 µg/mL

CC[C@H]1OC(=O)[C@H](C)[C@@H](O[C@H]2C[C@@](C)(OC)[C@@H](O)[C@H](C)O2)[C@H](C)[C@@H](O[C@@H]2O[C@H](C)C[C@H](N(C)C)[C@H]2O)[C@](C)(O)C[C@@H](C)CN(C)[C@H](C)[C@@H](O)[C@]1(C)O [AZM, azithromycin]
Fold decrease in CAZ MIC, drug combined with CAZ (P. aeruginosa LESB58-lux; MHB): 4
Fold decrease in CZA MIC, drug combined with CZA (P. aeruginosa LESB58-lux; MHB): 4
Fold decrease in other MIC, drug combined with CAZ (P. aeruginosa LESB58-lux; MHB): 4
Fold decrease in other MIC, drug combined with CZA (P. aeruginosa LESB58-lux; MHB): 2
FICI, drug combined with CAZ (P. aeruginosa LESB58-lux; MHB): 0.5
FICI, drug combined with CZA (P. aeruginosa LESB58-lux; MHB): 0.75
FICI, drug combined with CZA (P. aeruginosa LESB58-lux; MHB, listed as azithromycin): did not act synergistically
Fold decrease in CAZ MIC, drug combined with CAZ (P. aeruginosa LESB58-lux; TCM): 8
Fold decrease in CZA MIC, drug combined with CZA (P. aeruginosa LESB58-lux; TCM): 2
Fold decrease in other MIC, drug combined with CAZ (P. aeruginosa LESB58-lux; TCM): 2
Fold decrease in other MIC, drug combined with CZA (P. aeruginosa LESB58-lux; TCM): 2
FICI, drug combined with CAZ (P. aeruginosa LESB58-lux; TCM): 0.625
FICI, drug combined with CZA (P. aeruginosa LESB58-lux; TCM): 1
Fold reduction of bacterial load (CFU) relative to vehicle (P. aeruginosa LESB58 [1]; Azithromycin experiments): ~ 42
CFU per abscess, Fold change (P. aeruginosa LESB58 [1]; Azithromycin group): -42.1
Area of dermoncecrosis, % reduction (P. aeruginosa LESB58 [1]; [8]): 36.4%
Area of dermoncecrosis, % reduction (P. aeruginosa LESB58 [1]; Azithromycin group, CAZ or CZA 50 mg/mL, AZM 6.25 mg/mL, listed as azithromycin): 36%
CFU per abscess, Geometric mean (P. aeruginosa LESB58 [1]; [8]): 8.5 × 10^6 CFU per abscess
Area of dermoncecrosis, Mean (P. aeruginosa LESB58 [1]; Azithromycin group, 50 μL s.c. into infected area 1 h after infection, CAZ or CZA 50 mg/mL, AZM 6.25 mg/mL, vehicle citric acid in saline): 64.5 mm^2
Fold change TCM vs MHB (MIC) (P. aeruginosa LESB58 [3]): -100
MIC (P. aeruginosa LESB58 [3]; [6]): 62.5 µg/mL (≈ 83.4 µM)
MIC (P. aeruginosa LESB58 [3]; [7]): 0.625 µg/mL
Fold increase of efficacy in TCM compared to MHB (P. aeruginosa LESB58 [3]; host mimicking TCM vs MHB): 100
Highest tolerated dose tested [4]: 25 mg/mL
Toxic (visible skin irritation, inflammation, blood vessels, swelling) [4]: 50 mg/mL
Fold change TCM vs MHB (MIC) (P. aeruginosa PAO1): >-300
MIC (P. aeruginosa PAO1; read-out: MIC in MHB): 250 µg/mL (≈ 334 µM)
MIC (P. aeruginosa PAO1; read-out: MIC in TCM): < 0.78 µg/mL
